Data published in the supplement of paper PMC11061612.

Legend:
Experiment in all cases: combination Emax (second highest fraction inhibited in the dose matrix, 72 h); higher = more inhibition; extreme values may be limits of the assay
A2058 (Melanoma) = tested on: A2058 (Melanoma)
Outline: (§1)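 Bliss excess equals the observed combination effect minus the expected value EA + EB − EA·EB, where EA and EB are the effects of each agent alone. Combination Emax is the second-highest inhibition within the matrix. Inhibition was scaled from CellTiter-Glo 2.0 luminescence, with 0 set by vehicle wells and 1 by blank wells, after 72 hours of two-drug dosing of cells plated in 1536-well plates.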

[1] = tested on: FADU (Head and Neck Carcinoma)
Outline: as §1

GB-1 (Glioblastoma) = tested on: GB-1 (Glioblastoma)
Outline: as §1

[2] = tested on: GP5d (Colorectal Carcinoma)
Outline: as §1

[3] = tested on: HCT-15 (Colorectal Carcinoma)
Outline: as §1

[4] = tested on: HSC-39 (Gastric Carcinoma)
Outline: as §1

[5] = tested on: L-1236 (Hodgkin's Lymphoma)
Outline: as §1

[6] = tested on: MKN45 (Gastric Carcinoma)
Outline: as §1

[7] = tested on: NCI-H446 (Small Cell Lung Carcinoma)
Outline: as §1

[8] = tested on: OPM-2 (Plasma Cell Myeloma)
Outline: as §1

[9] = tested on: OVMIU (Ovarian Carcinoma)
Outline: as §1

[10] = tested on: PC-3_[JPC-3] (Lung Adenocarcinoma)
Outline: as §1

[11] = tested on: PSN1 (Pancreatic Carcinoma)
Outline: as §1

[12] = tested on: RCM-1 (Colorectal Carcinoma)
Outline: as §1

[13] = tested on: RERF-GC-1B (Gastric Carcinoma)
Outline: as §1

[14] = tested on: RKN (Other Solid Carcinomas)
Outline: as §1

[15] = tested on: SHP-77 (Small Cell Lung Carcinoma)
Outline: as §1

[16] = tested on: SU-DHL-10 (B-Cell Non-Hodgkin's Lymphoma)
Outline: as §1

[17] = tested on: TE-8 (Esophageal Squamous Cell Carcinoma)
Outline: as §1

[18] = tested on: VAL (B-Cell Non-Hodgkin's Lymphoma)
Outline: as §1

| SMILES | combination Emax (A2058 (Melanoma)) | combination Emax [1] | combination Emax (GB-1 (Glioblastoma)) | combination Emax [2] | combination Emax [3] | combination Emax [4] | combination Emax [5] | combination Emax [6] | combination Emax [7] | combination Emax [8] | combination Emax [9] | combination Emax [10] | combination Emax [11] | combination Emax [12] | combination Emax [13] | combination Emax [14] | combination Emax [15] | combination Emax [16] | combination Emax [17] | combination Emax [18] |
| --- | --- | --- | --- | --- | --- | --- | --- | --- | --- | --- | --- | --- | --- | --- | --- | --- | --- | --- | --- | --- |
| COc1nnc2ccc(N3CCC(c4ccc(OCCN5CCN(C)C(=O)[C@H]5C)cc4)CC3)nn12 [AZD5153] + C=CCn1c(=O)c2cnc(Nc3ccc(N4CCN(C)CC4)cc3)nc2n1-c1cccc(C(C)(C)O)n1 [AZD1775] (first compound max 1 µM, partner max 1 µM) | 0.8 | 0.592 | 0.641 | 0.848 | 0.739 | 0.967 | 0.999 | 0.696 | 0.962 | 1 | 0.86 | 0.58 | 0.54 | 0.667 | 0.77 | 0.527 | 0.66 | 1 | 0.654 | 0.792 |
| COc1cc2ncnc(Nc3ccc(F)c(Cl)c3)c2cc1OCCCN1CCOCC1 [Gefitinib] + CC(C)n1c(=O)n(C)c2cnc3cc(F)c(-c4ccc(OCCCN5CCCCC5)nc4)cc3c21 [AZD1390] (first compound max 10 µM, 7x7, partner max 0.3 µM) | 0.119 | 0.471 | 0.0404 | 0.281 | 0.352 | 0.217 | 0.254 | 0.14 | 0.314 | 0.203 | 0.532 | 0.67 | 0.102 | 0.41 | 0.265 | 0.175 | 0.0777 | 0.723 | 0.225 | 0.527 |
| NC1(C(=O)N[C@@H](CCO)c2ccc(Cl)cc2)CCN(c2ncnc3[nH]ccc23)CC1 [Capivasertib] + COc1nnc2ccc(N3CCC(c4ccc(OCCN5CCN(C)C(=O)[C@H]5C)cc4)CC3)nn12 [AZD5153] (first compound max 10 µM, 7x7, partner max 1 µM) | 0.882 | 0.65 | 0.48 | 0.873 | 0.717 | 0.916 | 1 | 0.58 | 0.97 | 1 | 0.665 | 0.349 | 0.256 | 0.613 | 0.617 | 0.449 | 0.607 | 1 | 0.582 | 0.806 |
| Cn1cnc2c(F)c(Nc3ccc(Br)cc3Cl)c(C(=O)NOCCO)cc21 [Selumetinib] + C=CCn1c(=O)c2cnc(Nc3ccc(N4CCN(C)CC4)cc3)nc2n1-c1cccc(C(C)(C)O)n1 [AZD1775] (first compound max 10 µM, partner max 1 µM) | 0.685 | 0.521 | 0.321 | 0.888 | 0.712 | 0.82 | 0.956 | 0.8 | 0.925 | 0.834 | 0.498 | 0.452 | 0.736 | 0.637 | 0.788 | 0.42 | 0.35 | 0.98 | 0.57 | 0.732 |
| C=CCn1c(=O)c2cnc(Nc3ccc(N4CCN(C)CC4)cc3)nc2n1-c1cccc(C(C)(C)O)n1 [AZD1775] + O=C(c1cc(Cc2n[nH]c(=O)c3ccccc23)ccc1F)N1CCN(C(=O)C2CC2)CC1 [Olaparib] (first compound max 1 µM, partner max 10 µM) | 0.284 | 0.591 | 0.318 | 0.713 | 0.443 | 0.988 | 0.746 | 0.775 | 0.778 | 0.864 | 0.569 | 0.458 | 0.478 | 0.518 | 0.693 | 0.355 | 0.443 | 0.962 | 0.865 | 0.816 |
| COc1nnc2ccc(N3CCC(c4ccc(OCCN5CCN(C)C(=O)[C@H]5C)cc4)CC3)nn12 [AZD5153] + C[C@@H]1COCCN1C2=NC(=NC(=C2)C3(CC3)[S@](=N)(=O)C)C4=C5C=CNC5=NC=C4 [AZD6738] (first compound max 1 µM, 7x7, partner max 10 µM) | 0.908 | 0.642 | 0.678 | 0.855 | 0.858 | 1 | 0.998 | 0.782 | 0.951 | 1 | 0.795 | 0.5 | 0.586 | 0.674 | 0.796 | 0.562 | 0.821 | 1 | 0.617 | 0.835 |
| NC1(C(=O)N[C@@H](CCO)c2ccc(Cl)cc2)CCN(c2ncnc3[nH]ccc23)CC1 [Capivasertib] + CC(=O)c1c(C)c2cnc(Nc3ccc(N4CCNCC4)cn3)nc2n(C2CCCC2)c1=O [Palbociclib] (first compound max 10 µM, 7x7, partner max 10 µM) | 0.638 | 0.527 | 0.476 | 0.648 | 0.665 | 0.749 | 0.861 | 0.628 | 0.719 | 0.987 | 0.383 | 0.398 | 0.484 | 0.383 | 0.458 | 0.182 | 0.499 | 1 | 0.48 | 0.626 |
| COc1cccc(OCCCN)c1-c1cc(Nc2cnc(C#N)cn2)n[nH]1 [Prexasertib] + CN(C)CCCOc1ccc(-c2ccc3ncc4c(c3c2)n(C2CCOCC2)c(=O)n4C)cn1 [AZD0156] (first compound max 1 µM, 7x7, partner max 1 µM) | 0.391 | 0.808 | 0.485 | 0.983 | 0.92 | 1 | 0.792 | 0.836 | 0.982 | 0.936 | 0.684 | 0.384 | 0.444 | 0.818 | 0.616 | 0.67 | 0.829 | 0.999 | 0.914 | 0.924 |
| CCN(CCO)CCCOc1ccc2c(Nc3cc(CC(=O)Nc4cccc(F)c4)[nH]n3)ncnc2c1 [AZD2811] + O=C(c1cc(Cc2n[nH]c(=O)c3ccccc23)ccc1F)N1CCN(C(=O)C2CC2)CC1 [Olaparib] (first compound max 1 µM, 7x7, partner max 10 µM) | 0.218 | 0.299 | 0.194 | 0.516 | 0.12 | 0.985 | 0.158 | 0.28 | 0.81 | 0.363 | 0.295 | 0.205 | 0.251 | 0.247 | 0.316 | 0.228 | 0.185 | 0.745 | 0.335 | 0.831 |
| CC1(C)CCC(CN2CCN(c3ccc(C(=O)NS(=O)(=O)c4ccc(NCC5CCOCC5)c([N+](=O)[O-])c4)c(Oc4cnc5[nH]ccc5c4)c3)CC2)=C(c2ccc(Cl)cc2)C1 [Venetoclax] + C[C@@H](Nc1cc(F)cc(F)c1)c1cc(C(=O)N(C)C)cc2c(=O)cc(N3CCOCC3)oc12 [AZD8186] (first compound max 1 µM, 7x7, partner max 3 µM) | 0.158 | 0.128 | 0.168 | 0.228 | 0.138 | 0.972 | 0.665 | 0.602 | 0.581 | 0.513 | 0.575 | 0.298 | 0.313 | 0.28 | 0.103 | 0.18 | 0.322 | 0.735 | 0.401 | 1 |
| NC1(C(=O)N[C@@H](CCO)c2ccc(Cl)cc2)CCN(c2ncnc3[nH]ccc23)CC1 [Capivasertib] + C[C@@H]1COCCN1C2=NC(=NC(=C2)C3(CC3)[S@](=N)(=O)C)C4=C5C=CNC5=NC=C4 [AZD6738] (first compound max 10 µM, 7x7, partner max 10 µM) | 0.805 | 0.594 | 0.563 | 0.829 | 0.738 | 1 | 0.818 | 0.753 | 0.904 | 1 | 0.62 | 0.441 | 0.536 | 0.665 | 0.558 | 0.272 | 0.424 | 1 | 0.706 | 0.831 |
| COc1nnc2ccc(N3CCC(c4ccc(OCCN5CCN(C)C(=O)[C@H]5C)cc4)CC3)nn12 [AZD5153] + Cn1cnc2c(F)c(Nc3ccc(Br)cc3Cl)c(C(=O)NOCCO)cc21 [Selumetinib] (first compound max 1 µM, 7x7, partner max 10 µM) | 0.842 | 0.629 | 0.288 | 0.887 | 0.819 | 0.76 | 1 | 0.744 | 0.91 | 1 | 0.737 | 0.525 | 0.818 | 0.817 | 0.753 | 0.577 | 0.424 | 1 | 0.575 | 0.738 |
| Cc1c2c(nn1C)CSCc1cc(n(C)n1)CSc1cc(c3ccccc3c1)OCCCc1c(C(=O)O)n(C)c3c-2c(Cl)ccc13 [AZD5991] + C=CCn1c(=O)c2cnc(Nc3ccc(N4CCN(C)CC4)cc3)nc2n1-c1cccc(C(C)(C)O)n1 [AZD1775] (first compound max 1 µM, partner max 1 µM) | 0.892 | 0.963 | 0.293 | 0.977 | 0.557 | 1 | 0.824 | 0.826 | 0.941 | 1 | 0.635 | 0.466 | 0.475 | 0.536 | 1 | 0.223 | 0.461 | 1 | 0.818 | 0.887 |
